Measurements taken from patent publication US20220162169A1, “6-OXO-1,6-DIHYDROPYRIDAZINE PRODRUG DERIVATIVE, PREPARATION METHOD THEREFOR, AND APPLICATION THEREOF IN MEDICINE” (JIANGSU HENGRUI MEDICINE CO., LTD., priority 2019, published 2022).
Values after ≈ are worked out from the molar mass of the structure shown. Counter-ions that a name gives are not always drawn.

Test: Solubility in PBS solution (pH 7.4) at room temperature
Type: physicochemical
Conditions: for solubility at 24 h: PBS solution (pH 7.4), aqueous buffer, kinetic from dmso stock, PBS pH 7.4, room temperature, 24 hours shaking, 1% DMSO, average of two measurements, read-out: Solubility in PBS pH7.4; for Solubility in the PBS solution (pH 7.4), in words: room temperature, PBS pH 7.4
Protocol: Test Example 1. Solubility of the Compound of the Present Disclosure in PBS Solution (pH 7.4) at Room Temperature
2.1 Formulation of the PBS solution (pH 7.4): 0.57 g of NaH2PO42.H2O, 5.55 g of Na2HPO4.12H2O and 6.48 g of NaCl were weighed, followed by the addition of ultra-pure water. The pH was adjusted to 7.4±0.05 with 1 M NaOH or 1 M HCl. Water was added until the volume reached 1 L. The PBS solution was stored in a refrigerator at 4° C. (the storage life was 6 months).
2.2 Formulation of the solution of the compound in PBS 7.4: An appropriate amount of the test compound was weighed, and dissolved in DMSO or a mixed solution of DMSO:acetonitrile:ethanol (1:1:1) to obtain a 10 mM stock solution of the test compound. 10 μL of the stock solution of the test compound and 990 μL of the PBS solution (pH 7.4) were precisely measured and placed in a 2 mL sample vial and mixed well, and the DMSO concentration of the final solution was 1% (v/v). This solution was formulated in duplicate, shaken on a plate bed at room temperature for 24 hours, and centrifuged at 5000 rpm for 20 minutes. The supernatant was analyzed by the liquid chromatograph.
2.3 Formulation of the reference solution: 10 μL of the stock solution of the test sample (concentration: 10 mM, dissolved in DMSO) and 990 μL of an organic mixed solvent (usually DMSO:acetonitrile:ethanol=1:1:1) were precisely measured and placed in a 2 mL sample vial, and mixed well to obtain a clear 100 μM sample solution. The solution was filtered through a 0.45 μm organic phase microporous filter membrane, and the filtrate was analyzed by the liquid chromatograph.
Solubility (μM)=peak area of the sample/peak area of the reference*concentration of the reference (μM)*sample solution dilution factor
The average of two measurements was used as the final solubility.

Compound | solubility at 24 h [µM] | Solubility in the PBS solution (pH 7.4), in words
Cc1cc(F)ccc1Oc1cc(C(F)(F)F)c(Cl)cc1C(=O)Nc1cnn(COC(=O)/C=C/C(=O)O)c(=O)c1 [Example 9, (E)-4-((4-(5-Chloro-2-(4-fluoro-2-methylphenoxy)-4-(trifluoromethyl)benzamido)-6-oxopyridazin-1(6H)-yl)methoxy)-4-oxobut-2-enoic acid] | 63.5 (≈ 36.2 µg/mL) | 
[2H]C([2H])([2H])Oc1cc(F)ccc1Oc1cc(C(F)(F)F)c(Cl)cc1C(=O)Nc1cnn(COC(=O)/C=C/C(=O)O)c(=O)c1 [Example 13, (E)-4-((4-(5-Chloro-2-(4-fluoro-2-(methoxy-d3)phenoxy)-4-(trifluoromethyl)benzamido)-6-oxopyridazin-1(6H)-yl)methoxy)-4-oxobut-2-enoic acid] | 63.6 (≈ 37.4 µg/mL) | 
Cc1cc(F)ccc1Oc1cc(C(F)(F)F)c(Cl)cc1C(=O)Nc1cnn(COC(=O)CC(=O)O)c(=O)c1 [Example 10, 3-((4-(5-Chloro-2-(4-fluoro-2-methylphenoxy)-4-(trifluoromethyl)benzamido)-6-oxopyridazin-1(6H)-yl)methoxy)-3-oxopropanoic acid] | 147 (≈ 82 µg/mL) | 
Cc1cc(F)ccc1Oc1cc(C(F)(F)F)c(Cl)cc1C(=O)Nc1cnn(COS(=O)(=O)O)c(=O)c1 [Example 8, (4-(5-Chloro-2-(4-fluoro-2-methylphenoxy)-4-(trifluoromethyl)benzamido)-6-oxopyridazin-1(6H)-yl)methyl hydrogen sulfate] | 707 | 
[2H]C([2H])([2H])Oc1cc(F)ccc1Oc1cc(C(F)(F)F)c(Cl)cc1C(=O)Nc1cnn(COS(=O)(=O)O)c(=O)c1 [Example 12, (4-(5-Chloro-2-(4-fluoro-2-(methoxy-d3)phenoxy)-4-(trifluoromethyl)benzamido)-6-oxopyridazin-1(6H)-yl)methyl hydrogen sulfate] | 96.2 | 

The remaining lines, values ahead:

solubility at 24 h [µM] | Solubility in the PBS solution (pH 7.4), in words | Compound
0.5 (≈ 0.221 µg/mL) | poor | Cc1cc(F)ccc1Oc1cc(C(F)(F)F)c(Cl)cc1C(=O)Nc1cn[nH]c(=O)c1 [Compound 1h, 5-Chloro-2-(4-fluoro-2-methylphenoxy)-N-(6-oxo-1,6-dihydropyridazin-4-yl)-4-(trifluoromethyl)benzamide]
0.44 (≈ 0.201 µg/mL) | poor | COc1cc(F)ccc1Oc1cc(C(F)(F)F)c(Cl)cc1C(=O)Nc1cn[nH]c(=O)c1 [Compound 6c, 5-Chloro-2-(4-fluoro-2-methoxyphenoxy)-N-(6-oxo-1,6-dihydropyridazin-4-yl)-4-(trifluoromethyl)benzamide]
1.26 (≈ 0.581 µg/mL) | poor | [2H]C([2H])([2H])Oc1cc(F)ccc1Oc1cc(C(F)(F)F)c(Cl)cc1C(=O)Nc1cn[nH]c(=O)c1 [Compound 7d, 5-Chloro-2-(4-fluoro-2-(methoxy-d3)phenoxy)-N-(6-oxo-1,6-dihydropyridazin-4-yl)-4-(trifluoromethyl)benzamide]
